# Test results taken from patent publication US20230293518A1 (Edgewise Therapeutics, Inc., priority 2020, published 2023).
# Target: skeletal myofibrils (myosin ATPase)
# Assay: Skeletal Myofibril ATPase Assay
# Assay type: biochemical
# Settings: Table 4C
# Summary of the method: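 IC50 came from four-parameter logistic fits, bottom constrained ≥0, of (Max−Min) A340 values normalised to 1% DMSO controls. Readings were taken kinetically over 45 min at 1.5-2 min intervals, with ADP from myofibril myosin ATPase coupled through PK-LDH to NADH oxidation. Buffer was pCa (PIPES/CaCl2/EGTA), pH 7.0.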
row,IC50 [µM],SMILES
1,< 10,"COc1ccc(-c2ccc(=O)n(CC(=O)Nc3ccc4c(c3)OCCO4)n2)c(F)c1 [IIIb-15, N-(2,3-dihydrobenzo[b][1,4]dioxin-6-yl)-2-(3-(2-fluoro-4-methoxyphenyl)-6-oxopyridazin-1(6H)-yl)acetamide]"
2,10 to 100,"COc1ccc(-c2ccc(=O)n(CC(=O)NC(C)C)n2)c(F)c1 [IIIb-19, 2-(3-(2-fluoro-4-methoxyphenyl)-6-oxopyridazin-1(6H)-yl)-N-isopropylacetamide]"
3,10 to 100,COc1ccc(-c2ccc(=O)n(CC(=O)NCc3ccccc3OC)n2)cc1 [IIIb-21]
4,10 to 100,"O=C(Cn1nc(-c2ccc3c(c2)OCCCO3)ccc1=O)NC1CCCCCC1 [IIIb-24, N-cycloheptyl-2-(3-(3,4-dihydro-2H-benzo[b][1,4]dioxepin-7-yl)-6-oxopyridazin-1(6H)-yl)acetamide]"
5,10 to 100,"COc1ccc(-c2ccc(=O)n(CC(=O)Nc3ccc4c(c3)OCO4)n2)cc1 [IIIb-28, N-(benzo[d][1,3]dioxol-5-yl)-2-(3-(4-methoxyphenyl)-6-oxopyridazin-1(6H)-yl)acetamide]"
6,10 to 100,"COc1ccc(-c2ccc(=O)n(CC(=O)NCC(C)C)n2)cc1 [IIIb-29, N-isobutyl-2-(3-(4-methoxyphenyl)-6-oxopyridazin-1(6H)-yl)acetamide]"
7,10 to 100,"COc1ccc(-c2ccc(=O)n(CC(=O)Nc3ccc4c(c3)OCO4)n2)c(F)c1 [IIIb-33, N-(benzo[d][1,3]dioxol-5-yl)-2-(3-(2-fluoro-4-methoxyphenyl)-6-oxopyridazin-1(6H)-yl)acetamide]"
8,10 to 100,"COc1ccc(-c2ccc(=O)n(CC(=O)Nc3ccc(Cl)cc3Cl)n2)c(F)c1 [IIIb-35, N-(2,4-dichlorophenyl)-2-(3-(2-fluoro-4-methoxyphenyl)-6-oxopyridazin-1(6H)-yl)acetamide]"
9,10 to 100,"COc1ccc(-c2ccc(=O)n(CC(=O)NCc3ccco3)n2)cc1 [IIIb-37, N-(furan-2-ylmethyl)-2-(3-(4-methoxyphenyl)-6-oxopyridazin-1(6H)-yl)acetamide]"
10,> 100,"COc1ccc(-c2ccc(=O)n(CC(=O)NCc3ccccc3F)n2)cc1 [IIIb-38, N-(2-fluorobenzyl)-2-(3-(4-methoxyphenyl)-6-oxopyridazin-1(6H)-yl)acetamide]"
11,> 100,"COc1ccc(-c2ccc(=O)n(CC(=O)NCCC(C)C)n2)cc1 [IIIb-48, N-isopentyl-2-(3-(4-methoxyphenyl)-6-oxopyridazin-1(6H)-yl)acetamide]"
12,> 100,"COc1ccc(-c2ccc(=O)n(CC(=O)NCc3ccc(OC)c(OC)c3)n2)cc1 [IIIb-49, N-(3,4-dimethoxybenzyl)-2-(3-(4-methoxyphenyl)-6-oxopyridazin-1(6H)-yl)acetamide]"
13,> 100,"COc1ccc(-c2ccc(=O)n(CC(=O)Nc3cccc(Cl)c3)n2)cc1 [IIIb-52, N-(3-chlorophenyl)-2-(3-(4-methoxyphenyl)-6-oxopyridazin-1(6H)-yl)acetamide]"
14,> 100,"COc1ccc(-c2ccc(=O)n(CC(=O)NCc3ccco3)n2)cc1 [IIIb-53, N-(furan-2-ylmethyl)-2-(3-(4-methoxyphenyl)-6-oxopyridazin-1(6H)-yl)acetamide]"

# Second part, the molecule before the results:
row,SMILES,IC50 [µM]
1,"COc1ccc(-c2ccc(=O)n(CC(=O)NCCc3ccccc3)n2)c(F)c1 [IIIb-9, 2-(3-(2-fluoro-4-methoxyphenyl)-6-oxopyridazin-1(6H)-yl)-N-phenethylacetamide]",< 10
2,"COc1ccc(-c2ccc(=O)n(CC(=O)Nc3cc(Cl)ccc3Cl)n2)cc1 [IIIb-10, N-(2,5-dichlorophenyl)-2-(3-(4-methoxyphenyl)-6-oxopyridazin-1(6H)-yl)acetamide]",< 10
3,"COc1ccc(-c2ccc(=O)n(CC(=O)Nc3ccc(Cl)cc3Cl)n2)cc1 [IIIb-11, N-(2,4-dichlorophenyl)-2-(3-(4-methoxyphenyl)-6-oxopyridazin-1(6H)-yl)acetamide]",< 10
4,"COc1ccc(-c2ccc(=O)n(CC(=O)Nc3cc(Cl)ccc3Cl)n2)c(F)c1 [IIIb-13, N-(2,5-dichlorophenyl)-2-(3-(2-fluoro-4-methoxyphenyl)-6-oxopyridazin-1(6H)-yl)acetamide]",< 10
5,"COc1ccc(-c2ccc(=O)n(CC(=O)NCCC3=CCCCC3)n2)cc1 [IIIb-14, N-(2-(cyclohex-1-en-1-yl)ethyl)-2-(3-(4-methoxyphenyl)-6-oxopyridazin-1(6H)-yl)acetamide]",< 10
6,"COc1ccc(-c2ccc(=O)n(CC(=O)Nc3ccc4c(c3)OCCO4)n2)cc1 [IIIb-16, N-(2,3-dihydrobenzo[b][1,4]dioxin-6-yl)-2-(3-(4-methoxyphenyl)-6-oxopyridazin-1(6H)-yl)acetamide]",< 10
7,"COc1ccc(-c2ccc(=O)n(CC(=O)NC(C)C)n2)cc1 [IIIb-18, N-isopropyl-2-(3-(4-methoxyphenyl)-6-oxopyridazin-1(6H)-yl)acetamide]",10 to 100
8,"COc1ccc(-c2ccc(=O)n(CC(=O)NCc3ccccc3)n2)cc1 [IIIb-20, N-benzyl-2-(3-(4-methoxyphenyl)-6-oxopyridazin-1(6H)-yl)acetamide]",10 to 100
9,"COc1ccc(-c2ccc(=O)n(CC(=O)NC3CC3)n2)cc1 [IIIb-22, N-cyclopropyl-2-(3-(4-methoxyphenyl)-6-oxopyridazin-1(6H)-yl)acetamide]",10 to 100
10,"COc1ccc(-c2ccc(=O)n(CC(=O)NC3CCCC3)n2)cc1 [IIIb-23, N-cyclopentyl-2-(3-(4-methoxyphenyl)-6-oxopyridazin-1(6H)-yl)acetamide]",10 to 100
11,"COc1ccc(-c2ccc(=O)n(CC(=O)Nc3cc(OC)ccc3OC)n2)cc1 [IIIb-25, N-(2,5-dimethoxyphenyl)-2-(3-(4-methoxyphenyl)-6-oxopyridazin-1(6H)-yl)acetamide]",10 to 100
12,"C[C@@H](NC(=O)Cn1nc(-c2ccc3c(c2)OCCCO3)ccc1=O)c1ccc(F)cc1 [IIIb-26, (R)-2-(3-(3,4-dihydro-2H-benzo[b][1,4]dioxepin-7-yl)-6-oxopyridazin-1(6H)-yl)-N-(1-(4-fluorophenyl)ethyl)acetamide]",10 to 100
13,"COc1ccc(-c2ccc(=O)n(CC(=O)Nc3ncccc3C)n2)cc1 [IIIb-27, 2-(3-(4-methoxyphenyl)-6-oxopyridazin-1(6H)-yl)-N-(3-methylpyridin-2-yl)acetamide]",10 to 100
14,"COc1ccc(-c2ccc(=O)n(CC(=O)NC(C)CCc3ccccc3)n2)cc1 (stereo not shown) [IIIb-30, 2-(3-(4-methoxyphenyl)-6-oxopyridazin-1(6H)-yl)-N-(4-phenylbutan-2-yl)acetamide]",10 to 100
15,"COc1ccc(-c2ccc(=O)n(CC(=O)NCc3ccc(Cl)cc3)n2)cc1 [IIIb-31, N-(4-chlorobenzyl)-2-(3-(4-methoxyphenyl)-6-oxopyridazin-1(6H)-yl)acetamide]",10 to 100
16,"COc1ccc(-c2ccc(=O)n(CC(=O)NCc3cccc(F)c3)n2)cc1 [IIIb-32, N-(3-fluorobenzyl)-2-(3-(4-methoxyphenyl)-6-oxopyridazin-1(6H)-yl)acetamide]",10 to 100
17,"COc1ccc(CNC(=O)Cn2nc(-c3ccc(OC)cc3)ccc2=O)cc1 [IIIb-34, N-(4-methoxybenzyl)-2-(3-(4-methoxyphenyl)-6-oxopyridazin-1(6H)-yl)acetamide]",10 to 100
18,"COc1ccc(-c2ccc(=O)n(CC(=O)NC(C)CCc3ccccc3)n2)c(F)c1 (stereo not shown) [IIIb-36, 2-(3-(2-fluoro-4-methoxyphenyl)-6-oxopyridazin-1(6H)-yl)-N-(4-phenylbutan-2-yl)acetamide]",10 to 100
19,"COc1ccc(-c2ccc(=O)n(CC(=O)NC[C@@H]3CC4C=CC3C4)n2)cc1 (stereo partly drawn) [IIIb-39, N-(((2R)-bicyclo[2.2.1]hept-5-en-2-yl)methyl)-2-(3-(4-methoxyphenyl)-6-oxopyridazin-1(6H)-yl)acetamide]",> 100
20,"COc1ccc(-c2ccc(=O)n(CC(=O)NCc3ccccc3Cl)n2)cc1OC [IIIb-40, N-(2-chlorobenzyl)-2-(3-(3,4-dimethoxyphenyl)-6-oxopyridazin-1(6H)-yl)acetamide]",> 100
21,"COc1ccc(-c2ccc(=O)n(CC(=O)NC3CCCCC3)n2)cc1 [IIIb-41, N-cyclohexyl-2-(3-(4-methoxyphenyl)-6-oxopyridazin-1(6H)-yl)acetamide]",> 100
22,"CCOc1ccc(-c2ccc(=O)n(CCNC(=O)CC3CCCC3)n2)cc1 [IIIb-43, 2-cyclopentyl-N-(2-(3-(4-ethoxyphenyl)-6-oxopyridazin-1(6H)-yl)ethyl)acetamide]",> 100
23,"CCc1ccc(-c2ccc(=O)n(CC(=O)Nc3ccc4c(c3)OCCO4)n2)cc1 [IIIb-44, N-(2,3-dihydrobenzo[b][1,4]dioxin-6-yl)-2-(3-(4-ethylphenyl)-6-oxopyridazin-1(6H)-yl)acetamide]",> 100
24,"COc1ccc(-c2ccc(=O)n(CC(=O)NC3CCCC3)n2)cc1OC [IIIb-45, N-cyclopentyl-2-(3-(3,4-dimethoxyphenyl)-6-oxopyridazin-1(6H)-yl)acetamide]",> 100
25,"COc1ccc(-c2ccc(=O)n(CC(=O)NCc3ccc(F)cc3)n2)c(F)c1 [IIIb-46, 2-(3-(2-fluoro-4-methoxyphenyl)-6-oxopyridazin-1(6H)-yl)-N-(4-fluorobenzyl)acetamide]",> 100
26,"COCCNC(=O)Cn1nc(-c2ccc(OC)cc2)ccc1=O [IIIb-47, N-(2-methoxyethyl)-2-(3-(4-methoxyphenyl)-6-oxopyridazin-1(6H)-yl)acetamide]",> 100
27,"COc1ccc(-c2ccc(=O)n(CC(=O)NCc3ccc(F)cc3)n2)cc1 [IIIb-50, N-(4-fluorobenzyl)-2-(3-(4-methoxyphenyl)-6-oxopyridazin-1(6H)-yl)acetamide]",> 100
28,"COc1ccc(-c2ccc(=O)n(CC(=O)NCCc3ccc(OC)c(OC)c3)n2)cc1 [IIIb-51, N-(3,4-dimethoxyphenethyl)-2-(3-(4-methoxyphenyl)-6-oxopyridazin-1(6H)-yl)acetamide]",> 100
29,"COc1ccc(-c2ccc(=O)n(CC(=O)NCc3ccccc3)n2)c(F)c1 [IIIb-54, N-benzyl-2-(3-(2-fluoro-4-methoxyphenyl)-6-oxopyridazin-1(6H)-yl)acetamide]",> 100
